Laboratory results from the SangsterLogP compilation.

Test: method code SF-HPLC, from DOI: 10.1002/ps.2780400103
Compound `CCCc1ccc(OCC(OC(=S)n2ccnc2)C(C)(C)C)cc1` (configuration not stated) has a logP of 5.77.
`CCc1ccc(OCC(OC(=S)n2ccnc2)C(C)(C)C)cc1` (configuration not stated) gave a logP of 5.09.
In the case of `CC(C)(C)C(COc1ccc(Br)cc1)OC(=S)n1ccnc1` (configuration not stated), the logP is reported as 5.11.
`CCc1ccc(OCC(OC(=O)n2ccnc2)C(C)(C)C)cc1` (configuration not stated) showed a logP of 4.1.
Work on `CCCCCc1ccc(OCC(OC(=O)n2ccnc2)C(C)(C)C)cc1` (configuration not stated) yielded a logP of 5.26.
In the case of `CC(C)(C)C(COc1ccc(C(F)(F)F)cc1)OC(=O)n1ccnc1` (configuration not stated), the logP is reported as 4.15.
`CCCOc1ccc(OCC(OC(=O)n2ccnc2)C(C)(C)C)cc1` (configuration not stated) gave a logP of 4.1.
Compound `COc1ccc(OCC(OC(=S)n2ccnc2)C(C)(C)C)cc1` (configuration not stated) has a logP of 4.31.
In the case of `CC(C)(C)C(COc1ccc([N+](=O)[O-])cc1)OC(=O)n1ccnc1` (configuration not stated), the logP is reported as 3.35.
With `COC(=O)c1ccc(OCC(OC(=O)n2ccnc2)C(C)(C)C)cc1` (configuration not stated) the logP was 3.59.
With `CC(C)(C)C(COc1ccc(F)cc1)OC(=S)n1ccnc1` (configuration not stated) the logP was 4.37.
Work on `CC(C)Oc1ccc(OCC(OC(=O)n2ccnc2)C(C)(C)C)cc1` (configuration not stated) yielded a logP of 4.08.
Compound `COc1ccc(OCC(OC(=O)n2ccnc2)C(C)(C)C)cc1` (configuration not stated) has a logP of 3.46.
`CCCCOc1ccc(OCC(OC(=O)n2ccnc2)C(C)(C)C)cc1` (configuration not stated) gave a logP of 4.29.
`CC(C)(C)C(COc1ccc(S(C)(=O)=O)cc1)OC(=O)n1ccnc1` (configuration not stated) gave a logP of 2.59.
Work on `CCOC(=O)c1ccc(OCC(OC(=O)n2ccnc2)C(C)(C)C)cc1` (configuration not stated) yielded a logP of 4.12.
With `CCCCc1ccc(OCC(OC(=O)n2ccnc2)C(C)(C)C)cc1` (configuration not stated) the logP was 4.97.
Compound `CCOc1ccc(OCC(OC(=O)n2ccnc2)C(C)(C)C)cc1` (configuration not stated) has a logP of 3.86.
Compound `CC(C)(C)C(COc1ccc(-c2ccccc2)cc1)OC(=S)n1ccnc1` (configuration not stated) has a logP of 6.06.
`COC(=O)c1ccc(OCC(OC(=S)n2ccnc2)C(C)(C)C)cc1` (configuration not stated) showed a logP of 4.77.
For `CC(C)c1ccc(OCC(OC(=O)n2ccnc2)C(C)(C)C)cc1` (configuration not stated), the logP was 4.77.
Compound `CC(C)(C)C(COc1ccc(-c2ccccc2)cc1)OC(=O)n1ccnc1` (configuration not stated) has a logP of 4.56.
`CC(C)(C)c1ccc(OCC(OC(=O)n2ccnc2)C(C)(C)C)cc1` (configuration not stated) gave a logP of 4.82.
Compound `CSc1ccc(OCC(OC(=O)n2ccnc2)C(C)(C)C)cc1` (configuration not stated) has a logP of 4.03.
`CCOc1ccc(OCC(OC(=S)n2ccnc2)C(C)(C)C)cc1` (configuration not stated) gave a logP of 4.58.
`CC(C)(C)C(COc1ccc(F)cc1)OC(=O)n1ccnc1` (configuration not stated) gave a logP of 3.68.
`CC(C)(C)C(COc1ccc(Cl)cc1)OC(=O)n1ccnc1` (configuration not stated) showed a logP of 4.19.
In the case of `CC(C)(C)C(COc1ccc(Cl)cc1)OC(=S)n1ccnc1` (configuration not stated), the logP is reported as 4.96.
Work on `CC(C)(C)C(COc1ccc(Br)cc1)OC(=O)n1ccnc1` (configuration not stated) yielded a logP of 4.37.
For `CCCOc1ccc(OCC(OC(=S)n2ccnc2)C(C)(C)C)cc1` (configuration not stated), the logP was 5.03.
`CCCc1ccc(OCC(OC(=O)n2ccnc2)C(C)(C)C)cc1` (configuration not stated) gave a logP of 4.73.
Work on `CC(C)(C)C(COc1ccc(C#N)cc1)OC(=O)n1ccnc1` (configuration not stated) yielded a logP of 3.15.
Work on `CC(C)(C)C(COc1ccc(I)cc1)OC(=O)n1ccnc1` (configuration not stated) yielded a logP of 4.3.
With `Cc1ccc(OCC(OC(=S)n2ccnc2)C(C)(C)C)cc1` (configuration not stated) the logP was 4.66.
For `CC(C)(C)C(COc1ccccc1)OC(=O)n1ccnc1` (configuration not stated), the logP was 3.58.
With `CC(C)(C)C(COc1ccccc1)OC(=S)n1ccnc1` (configuration not stated) the logP was 4.27.
With `CC(C)c1ccc(OCC(OC(=S)n2ccnc2)C(C)(C)C)cc1` (configuration not stated) the logP was 5.21.
